ChEMBL document CHEMBL3507680, “University of Dundee, Gates Library screen for HepG2 cell viability”

Test: Human HepG2 cell viability assay in 384 well format
Type: toxicity, cell-based
Set-up: dose 125 nL, time 70.5 hour; concentration not given beside the values
Conditions: HepG2 cells, read-out: Inhibition

Row | SMILES | cytotoxicity at 70.5 h [%]
1 | CSC(C)C(=O)NCCCc1cc(N)n(-c2ccccc2)n1 (stereo not given) | 1.73
2 | CCc1nc(CN2CCCN(Cc3nnc(C4CC4)o3)CC2)no1 | -5.98
3 | O=C(c1ccc(Cl)cc1)N1CCC2(CC1)C(=O)Nc1ccccc12 | 14.3
4 | CCC(C(=O)NC1CCN(S(C)(=O)=O)CC1)n1cccn1 (stereo not given) | -7.66
5 | COCc1cnc2n1CCN(C(=O)c1ccc3ccccc3n1)C2C (stereo not given) | -8.35
6 | CC(O)CN1CC2(CCC1=O)CCN(Cc1cc(F)ccc1Cl)CC2 (stereo not given) | -2.56
7 | COCCN(C(=O)c1ccccn1)c1nc2c(s1)CCc1c-2cnn1C | 14.7
8 | Cn1cnc(-c2nc(C(=O)NCCN3CCOCC3)c3ccccn23)c1 | -2.81
9 | CN(C)C(=O)c1cc(-c2cnc(N)nc2)nc2cc(F)ccc12 | -2.39
10 | CC(C(=O)Nc1ncccn1)N1CCC(n2ccnc2)CC1 (stereo not given) | -4.52
11 | c1cc2c(cc1Cn1cc(C3CCCNC3)nn1)CCCO2 (stereo not given) | -15.2
12 | COc1cc(NC2CCCNC2)cc(OC)c1 (stereo not given) | 17.7
13 | Cc1cccc(CN2C(=O)CO[C@@H]3CN(Cc4cnn(C)c4)C[C@H]32)c1 | 4.73
14 | O=c1[nH]c(N2CCCCC2)nc2c1CCN(Cc1cccnc1)C2 | -6.55
15 | CCc1ncc(-c2nccn2-c2cccc(CC(=O)O)c2)cn1 | -11.5
16 | CC(NC(=O)C1=NN(C)C(=O)CC1)c1ccc(Cl)cc1 (stereo not given) | -110
17 | CCn1nc(C)c(NC(=O)CN(C)C(C)c2nccs2)c1C (stereo not given) | -6.95
18 | CN(c1cccnn1)[C@@H]1CC[C@@H]2CN(Cc3ccccc3C(=O)O)C[C@@H]21 | -6.92
19 | Cc1cnc(N2CCC3(CC2)CC3CN(C)Cc2cccnc2)nc1 (stereo not given) | 2.52
20 | COCC(O)CNC(=O)Nc1c(F)cc(F)cc1-c1ccccc1 (stereo not given) | -11.2
21 | CC(=O)N1CCC(N2CCOC[C@H]2c2nc(-c3ccncc3)c[nH]2)CC1 | -0.136
22 | COc1cccc(COCC(O)CN2CC(n3cccn3)C2)c1 (stereo not given) | -6.05

Row | SMILES | cytotoxicity at 70.5 h [%]
23 | O=C(NCCc1cc2nc(-c3ccncc3)ccn2n1)C1CCOCC1 | -5.82
24 | CCS(=O)(=O)NC[C@]12COC[C@H]1CN(Cc1cccc(OC)c1)C2 | -11.2
25 | NC(=O)C1CCN(CCc2ccc(NCc3cccnc3)cc2)CC1 | 4.26
26 | CCC[C@@H]1CN(c2cncc(C(=O)N3CCOCC3)n2)C[C@H]1N(C)C | 32.6
27 | CCN(CC1CCCO1)S(=O)(=O)c1cc(NC(C)=O)ccc1C (stereo not given) | 6.44
28 | CCn1c(SCC(=O)N2CCOCC2)nc2cc(C)[nH]c2c1=O | 0.779
29 | Cc1ccc(O[C@@H]2C[C@H]3CN(C(=O)Cc4ccccn4)CCN3C2)cc1 | 17.9
30 | OCCN1CCC(CNCc2ccc(Br)cc2)CC1 | -1.11
31 | Cc1cc2nc(CN(C)c3ccc(Cl)cc3)cc(=O)n2o1 | 22
32 | Cc1cccc(N(CC(=O)N2CCCCC2)Cc2nc(=O)[nH][nH]2)c1 | -0.474
33 | CN(C)S(=O)(=O)N1C[C@H]2C[C@H](C(=O)Nc3ccccc3)[C@@H](C1)O2 | -5.82
34 | CCCc1n[nH]c(C2CN(CCc3cccs3)CCO2)n1 (stereo not given) | -3.81
35 | CC(C)Cc1ncc2c(n1)CN(C(=O)Cn1c(=O)oc3ccccc31)C2 | -14.5
36 | Cc1c(NC(C)C(C)C)cccc1C(=O)NCc1nccn1C (stereo not given) | -3.37
37 | c1ccc2oc(CCCN3CCOC(Cn4cccn4)C3)nc2c1 (stereo not given) | 0.524
38 | O=C(C1CCC2(CCN(Cc3cccnc3)CC2)CO1)N1CCCC1 (stereo not given) | -7.42
39 | COC(=O)[C@@H]1Cc2ncn(C)c2CN1S(=O)(=O)Cc1ccccc1 | -2.85
40 | COCCCC1CCCCN1S(=O)(=O)c1cccc(C#N)c1 (stereo not given) | 4.41
41 | CCOCC(O)CN1CCN(C(=O)CC(C)C)CC1 (stereo not given) | -7.21
42 | Cc1noc(C(C)C)c1C(=O)NCc1ccc2c(c1)OCCO2 | -5.36
43 | O=S(=O)(CCNCc1ccc(Cl)cc1)N1CCOCC1 | 15.5
44 | Cc1cccc(N2CCC(NC(C)c3cccs3)CC2)n1 (stereo not given) | 10.3

Row | SMILES | cytotoxicity at 70.5 h [%]
45 | CC1Cc2ccccc2N1C(=O)Cn1nc(-c2cccs2)ccc1=O (stereo not given) | -8.13
46 | Cc1nc2ccccc2nc1CN1CCCCC1Cn1cncn1 (stereo not given) | -8.21
47 | CCNC(=O)[C@@H]1C[C@H](N)CN1c1cc(CC)nc(N(C)C)n1 | -4.05
48 | Cc1noc(CCCC(=O)N(CCC(=O)O)Cc2ccc(F)c(F)c2)n1 | -3.72
49 | Cc1noc(CNC(=O)NCC2(C)CCCc3ccccc32)n1 (stereo not given) | -8.6
50 | Cc1nc(C)n(CC2CCCN(Cc3nnc(C4CC4)o3)C2)n1 (stereo not given) | -7.21
51 | Cc1nc(CCNC(=O)NC2CCN(c3ncccn3)CC2)cs1 | -8.38
52 | COCCO[C@H]1CCN(c2ccc(C)nn2)[C@H]1Cc1cnn(C)c1 | -3.27
53 | O=C(NCC(F)F)c1ccc(S(=O)(=O)N2CCCC(O)C2)cc1 (stereo not given) | 18.2
54 | O=C(NCc1nc(NC2CCCC2)c2cc(Cl)ccc2n1)c1cscn1 | -2.54
55 | O=C(Cn1nc(Br)nc1Br)N1CCOCC1 | 27.3
56 | CCC(=O)N1CCC(c2nc3c(c(NC)n2)CN(C)CC3)C1 (stereo not given) | -9.93
57 | COCC(=O)N1CC(c2csc(NC(C)=O)n2)C1 | -3.83
58 | Cc1nc(-c2cccnc2)ncc1C(=O)N1CCCC(N(C)C)CC1 (stereo not given) | -20
59 | COc1ccccc1C(C)NC(=O)N1CCN(Cc2ccc(Br)s2)CC1 (stereo not given) | 5.11
60 | CC(=O)N1CCO[C@@H]2CN(C(=O)c3ccc4ncccc4c3)CC[C@@H]2C1 | -3.03
61 | CCCc1cc(=O)[nH]c2nnc(SCC(N)=O)n12 | 23.3
62 | Cn1cc(CNC2CC3(CCN(S(C)(=O)=O)CC3)c3ccccc32)cn1 (stereo not given) | -11.7
63 | Cc1ccc(CNC(=O)N(Cc2ccccc2F)C2CC2)cn1 | -1.38
64 | CN1CCN(CC(NCc2ccc(F)c(F)c2)c2ccccc2)CC1 (stereo not given) | 5.13
65 | CCn1c(C)cc(C(=O)N2C[C@@H](C(=O)O)[C@H](c3ccccc3)C2)c1C | -2.74
66 | CC(=O)c1cc(CN2CCCC2c2nc3ccc(C)cc3[nH]2)cs1 (stereo not given) | -3.73

Row | SMILES | cytotoxicity at 70.5 h [%]
67 | Cc1cc(N2CCOC(CN)C2)nc(-c2ccccc2)n1 (stereo not given) | -10.8
68 | O=C(NCCc1csc(-c2ncccn2)n1)c1cnn2c1CCCC2 | -18.5
69 | Cc1nc(C2CCN(S(C)(=O)=O)CC2)nc2c1CCC(=O)N2CC(C)C | -1.36
70 | Cn1nc2c(cc1=O)CN(CC(=O)NC1CCCCNC1=O)CC2 (stereo not given) | 12.7
71 | CC(CN1CC[C@@H]2CCCC[C@@H]2C1)n1cnc2ccccc21 (stereo not given in full) | 21.4
72 | Cc1nsc(NCCNS(=O)(=O)c2cccc(Cl)c2)n1 | 9.23
73 | C[C@@H](NC(=O)c1cnccn1)c1c(-c2ccc(Cl)cc2)noc1C(=O)O | -5.53
74 | CNc1oc(-c2cc(S(=O)(=O)N3CCCCCC3)c(C)o2)nc1C#N | -20.9
75 | O=C(c1ccc2c(c1)OCO2)N1CCCSCC1CN1CCCC1 (stereo not given) | 0.782
76 | Cn1ccnc1-c1noc(NCc2ccc(Cl)cc2)n1 | -8.5
77 | CCC(CC)C(=O)N1CCC2(CC1)c1ccccc1[C@@H](OC)[C@@H]2O | -8.24
78 | CSCCC(C)(O)CNC(=O)Nc1ccccc1C (stereo not given) | -6.41
79 | Cc1cc(N(C)C)nc(C2CCCN2)n1 (stereo not given) | -3.78
80 | Cc1cc(C)n(CC2CCCN2Cc2ccc(F)cc2C#N)n1 (stereo not given) | -4.46
81 | CN1CC(C(=O)NCc2ccc(Br)cc2F)CC1=O (stereo not given) | -14.4
82 | COC[C@@]12CC[C@@H](N3CCOCC3)C[C@H]1CCN(c1ccc(Cl)cn1)C2 | -6.42
83 | Cc1noc(C)c1CN1CC2(CCN(C(=O)c3cscn3)CC2)CC1=O | -10.1
84 | CC(C)(C)c1cc(NC(=O)CN(Cc2cccs2)Cc2cccs2)on1 | -8.34
85 | Cc1cnc(N(C)CCCc2cnn(C)c2)nc1N(C)C | 14.8
86 | COCCN1C(=O)[C@H]2CC[C@@H]1CN(S(=O)(=O)c1ccc(C#N)cc1)C2 | -3.7
87 | CCCC(=O)N1CCCC1(C)c1nc(C)no1 (stereo not given) | -14.9
88 | CN(Cc1nnnn1C1CC1)c1cccc2ccccc12 | 0.192

Row | SMILES | cytotoxicity at 70.5 h [%]
89 | Cc1ccc(-n2nc(C)c3c(C)cc(OCC(=O)NC(C)C)nc32)cc1 | -1.77
90 | CCCn1cnnc1CN(C)C(=O)CCC(=O)Nc1cc(C)ccc1F | -6.48
91 | O=C(NS(=O)(=O)Cc1cc(-c2ccccc2)no1)C1CCOCC1 | -1.22
92 | O=C(c1cnc2ccc(F)cc2c1NCc1ccco1)N1CCCC1 | 28.7
93 | C=C(C)COc1cccc(CNCCc2c[nH]cn2)c1 | -6.28
94 | CC(C)[C@H](NC(=O)NC1CCS(=O)(=O)C1)C(=O)NCc1ccccc1Cl (stereo not given in full) | 0.909
95 | CN1CC[C@H]2CN(C(=O)COCc3nc4cc(F)ccc4[nH]3)C[C@H]21 | 20.4
96 | O=C1CO[C@@H]2CN(Cc3cccs3)C[C@H]2N1Cc1ccncc1 | 7.47
97 | CC(C)c1nc(C2CCCN(C(=O)CS(=O)(=O)C(C)C)C2)no1 (stereo not given) | -7.77
98 | Cc1cccc(CN(C(=O)CS(C)(=O)=O)C(C)C)c1 | -2.96
99 | Cc1ccc(N2C[C@@H]3CN(C(=O)c4ccccc4)CCO[C@@H]3C2)nn1 | 23.3
100 | O=C(CN1C[C@H]2CC[C@@H]1CN(Cc1ccccn1)C2)Nc1ccccc1 | -6.28
101 | CC(NC(=O)c1cccs1)C(=O)NCc1cccnc1N1CCCCC1 (stereo not given) | -16.1
102 | CC(C)N(C)Cc1cnc2n1CCN(C(=O)Cc1cccs1)C2C (stereo not given) | -6.21
103 | Cc1nc2ncccn2c1C(=O)N1CCc2[nH]cnc2C1 | -1.79
104 | Cc1cccc(OC2CN(C(=O)C3CC(=O)N(C(C)(C)C)C3)C2)c1 (stereo not given) | -2.82
105 | O=C1O[C@@H]2CN(c3ccncc3)C[C@@H]2N1CCCc1ccc(F)cc1 | -6.08
106 | CC(C)c1nc2n(n1)CC(NCc1ccncc1)CC2 (stereo not given) | -16.7
107 | CCCC(=O)NC1CCCN(c2cncc(Br)c2)C1 (stereo not given) | -10.5
108 | Cc1nc(CN(C)C2CCN(CCc3ccc4c(c3)CCO4)C2)no1 (stereo not given) | 1.48
109 | O=C(CCn1cnnn1)N1CCCC(CO)(CCCc2ccccc2)C1 (stereo not given) | -1.63
110 | CCN(Cc1ccc2c(c1)OCCO2)C(=O)NCc1nncn1CC | -13.5
